Earlier results in publication PMC9605497, “Potential of Epidermal Growth Factor-like Peptide from the Sea Cucumber Stichopus horrens to Increase the Growth of Human Cells: In Silico Molecular Docking Approach” (Marine Drugs, 2022).

How the values were obtained:
[1] = test system: receptors (EGFR); settings: 0.156 to 5 ng/mL biotinylated EGF; ref [46] King et al.; cited from earlier work
Procedure: The increasing binding activity was determined by both the concentration of biotinylated EGF tested and the number of cells used. In this study, inoculating about 80,000 cells gives a reproducible result as opposed to when lower number of cells was used. Increasing the ligand concentration could improve assessment of the binding signal of Sh-EGFl-1 peptide with human EGFR s ...

[2] = test system: carcinoma cells; settings: 10 nM EGF; ref [75] Clark et al.; cited from earlier work
Procedure: (§1) The rationale of testing peptide concentrations at 10 nM was based on a study done by Clark et al.. In the study, the EGFR expression in carcinoma cells was prolonged for 10 h when 10 nM of EGF was exerted, as compared to only 4 h of EGFR expression in 0.4 nM EGF. This is supported by another experiment by Zhao et al. where cell proliferation of CHO cells can only be induced when exerted with EGF concentrations below 0.1 ng/mL. In contrast, cell proliferation at higher EGF concentrations (1 to 100 ng/mL) was suppressed. The process of EGF binding to its receptor and the internali ...

[3] = test system: HeLa cells; settings: ref [77]; cited from earlier work
Procedure: as §1

[4] = test system: CHO cells; settings: ref [76] Zhao et al., cited from earlier work
Procedure: as §1

[5] = molecular target: EGFR; settings: SPR and AFM, experimental; ref [41] Kuo et al.; read-out: dissociation constant (Kd) of EGF and EGFR complex; cited from earlier work
Source text: The values are different because docking is based on the scoring functions used. […] A lower Kd value means dissociation occurs at a slow rate and the binding affinity (Ka) between these ...

[6] = test system: human skin model; settings: 50 nM, compared to 0.1 nM and 10 nM EGF; ref [18]; cited from earlier work
Source text: Despite these nutritional properties that could be indirectly associated with the wound healing benefit of this marine organism, the full potential of sea cucumber as a source of marine therapeutic product remains unexplored and limited to the previous approaches of specific metabolite identification. Among the prospective molecules to be investigated are growth factors and cytokines, which are examples of important mitogens that ensure an effective wound healing process. Several mitogens are involved directly as growth factors in cell proliferation such as epidermal growth factor (EGF) ...

Substance	absorbance reading [1]	duration of EGFR expression [2] [h]	time for EGF binding and internalization of receptor [3]	cell proliferation at higher EGF concentrations ([4]; 1 to 100 ng/mL)	EGF concentration inducing cell proliferation ([4]; CHO cells)	Kd [5] [nM]	DNA synthesis [6]
biotinylated EGF: biotinylated EGF used by King et al.	consistent increases in the absorbance reading	–	–	–	–	–	–
Human EGF: human EGF (chain C) of crystal structure 1IVO; also EGF of cited literature (MNSDSECPLSHDGYCLHDGVCMYIEALDKYACNCVVGYIGERCQYRDLKWWELR; biotin (conjugated with NHS-biotin; sites not stated))	–	10	less than 30 min	suppressed	below 0.1 ng/mL	~177	maximum increase of DNA synthesis
